Key:
human skin [1] = test: Forearm controlled application test (FCAT), skin hydration by Corneometer
Experimental: (§1) Topical compositions were tested on skin samples for their ability to improve or maintain skin hydration and limit transepidermal water loss (TEWL). Measurement of the TEWL, expressed in grams per square meter and per hour, is used for studying the water barrier function of the human skin. The more perfect the skin protective coat, the higher the water content and the lower the TEWL. For each of the tests, a negative control was used, which included treatment with 8% SLS. An untreated skin sample was also tested for comparison. The tests were performed using the forearm controlled application test (FCAT) methodology. The various samples were applied to test sites on a forearm over the course of several days. On each day, up to six applications were made and the change in TEWL and hydration levels were recorded. The hydration levels were measured using a Corneometer® based on capacitance measurement of a dielectric medium. The Corneometer® measures the change in the dielectric constant due to skin surface hydration changing the capacitance of a precision capacitor. The measurement can detect even slight changes in the hydration level.
(§2) The compositions that were tested include the following, in weight %, based on the weight of the total composition: […]

human skin [2] = test: Forearm controlled application test (FCAT), transepidermal water loss (TEWL)
Experimental: as §1, §2

[3] = Example 2, wet and dry application, after 3 and 5 days of treatment

## CCCCCCCCCCCCOS(=O)(=O)[O-].[Na+] [negative control, sodium lauryl sulfate]
Human skin [1]; Example 1, FIG. 5, up to six applications per day over several days
  hydration levels (change vs baseline): lowest hydration levels
Human skin [1]; [3]
  change in hydration levels: significant reduction in hydration level
Human skin [2]; Example 1, FIG. 6, up to six applications per day over several days
  TEWL (change vs baseline): highest TEWL
Human skin [2]; [3]
  change in TEWL: significant TEWL
